Measured values as given in PubChem BioAssay AID1205 (EPA DSSTox, 2008).
Calls of active or inactive are those of the source.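 The calls were made as follows: active = tumour findings in long-term animal cancer tests in more than one sex, species or organ; inactive = no tumour finding and more than one negative test.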

Experiment: DSSTox (CPDBAS) Carcinogenic Potency Database Summary MultiCellCall Results
Details: animal carcinogenicity bioassays, multi-cell call summary
How it was run: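 Summary call drawn from chronic long-term cancer bioassays in rats, mice, hamsters, dogs and nonhuman primates, using the most positive result per sex-species. Score: multispecies=50, multisex=30, multisite=20, summed for combinations.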
With `CCCCC(CC)COC(=O)COc1ccc(Cl)cc1Cl` (stereo not drawn) the outcome was “inactive; multisex inactive”. For `CC(Oc1cc(Cl)c(Cl)cc1Cl)C(=O)O` (stereo not drawn), the outcome was “inactive; multisex inactive”. For `CC(=O)NN`, the outcome was “active; multisex active”. With `NNC(=O)c1cccnc1` the outcome was “active; multisex active”. With `COc1ccc(C(=O)Nc2c(Cl)cncc2Cl)cc1OC1CCCC1` the outcome was “active; multisex active”. In the case of `C1CCC(C(CC2CCCCN2)C2CCCCC2)CC1` (stereo not drawn), the outcome is reported as “inactive; multisex inactive”. With `O=NN1CCOC1=O` the outcome was “active; multisite active”. For `CCCc1cc(=O)[nH]c(=S)[nH]1`, the outcome was “active; multisite active; multisex active; multispecies active”. With `O=c1ccc2ccccc2o1` the outcome was “active; multisite active; multisex active; multispecies active”. With `Oc1ccc2c(c1)OCO2` the outcome was “active; multisex active; multispecies active”. For `O=C(O)CN(CCN(CC(=O)O)CC(=O)O)CC(=O)O`, the outcome was “inactive; multisex inactive; multispecies inactive”. In the case of `ClCC1CO1` (stereo not drawn), the outcome is reported as “active; multisex active”. For `CN(CC(O)CO)N=O` (stereo not drawn), the outcome was “active; multisite active; multispecies active”. With `OC[C@@H](O)[C@@H](O)[C@H](O)[C@H](O)CO` the outcome was “inactive; multisex inactive; multispecies inactive”. In the case of `Nc1ccc(Oc2ccc(N)cc2)cc1`, the outcome is reported as “active; multisite active; multisex active; multispecies active”. With `COc1ccccc1[N+](=O)[O-]` the outcome was “active; multisite active; multisex active; multispecies active”. With `CCCN(N=O)C(N)=O` the outcome was “active; multisex active”. In the case of `Nc1c(Cl)cc(Cl)cc1Cl`, the outcome is reported as “active; multisite active”. With `C1CCNCC1` the outcome was “inactive; multisex inactive”. With `O=C(O)CNCC(=O)O` the outcome was “inactive; multisex inactive”. In the case of `O=[N+]([O-])c1ccc2ccc3cccc4ccc1c2c34`, the outcome is reported as “active; multisite active”. For `CC(=O)N(C(C)=O)c1cccc2c1Cc1ccccc1-2`, the outcome was “active; multisite active”. In the case of `CCN(N)C=O`, the outcome is reported as “active; multisite active; multisex active”. With `CC(=O)Nc1ccc(CC(=O)O)cc1` the outcome was “inactive; multisex inactive; multispecies inactive”. For `OC[C@@H](O)[C@@H](O)[C@H](O)[C@H](O)CO[C@H]1O[C@H](CO)[C@@H](O)[C@H](O)[C@H]1O`, the outcome was “inactive; multisex inactive”. With `CN(N=O)C(=O)N[C@@H]1[C@@H](O)[C@H](O)[C@@H](CO)O[C@@H]1O` the outcome was “active; multisite active; multisex active; multispecies active”. With `O=c1[nH]cc(F)c(=O)[nH]1` the outcome was “active; multisite active; multisex active”. In the case of `CCCCC1(COC(=O)CCC(=O)O)C(=O)N(c2ccccc2)N(c2ccccc2)C1=O`, the outcome is reported as “inactive; multisex inactive”. With `O=P(O)(OCC(Br)CBr)OCC(Br)CBr` (stereo not drawn) the outcome was “active; multisite active; multisex active”. For `C=C(F)F`, the outcome was “inactive; multisex inactive”. In the case of `C=Cc1cccc[n+]1[O-]`, the outcome is reported as “inactive; multispecies inactive”. For `O=NN1CC(=O)NC1=O`, the outcome was “active; multisite active; multisex active”. For `CCN(CC)C(=S)S[Te](SC(=S)N(CC)CC)(SC(=S)N(CC)CC)SC(=S)N(CC)CC`, the outcome was “inactive; multisex inactive; multispecies inactive”. With `CC[N+]([O-])=NC` the outcome was “active; multisite active”. With `Cc1ccc(N)cc1N` the outcome was “active; multisite active; multisex active; multispecies active”. With `Cc1ncc[nH]1` the outcome was “active; multisite active; multisex active; multispecies active”. In the case of `Cc1ccc(N)cc1`, the outcome is reported as “active; multisex active”. For `COc1cc(CNC(=O)CCCC/C=C/C(C)C)ccc1O`, the outcome was “active; multisex active”. For `Cc1ccc(Cl)cc1N`, the outcome was “active; multisite active; multisex active”. In the case of `CCCN(CCC)c1c([N+](=O)[O-])cc(C(F)(F)F)cc1[N+](=O)[O-]`, the outcome is reported as “active; multisite active”. With `CCCN=[N+]([O-])CCC` the outcome was “active; multisite active”. For `FC(F)(F)C(Cl)Cl`, the outcome was “active; multisite active; multisex active”. With `CCCC[C@H](C)[C@@H](OC(=O)C[C@H](CC(=O)O)C(=O)O)[C@@H](C[C@H](C)C[C@@H](O)CCCC[C@@H](O)C[C@H](O)[C@H](C)N)OC(=O)C[C@H](CC(=O)O)C(=O)O` the outcome was “active; multisite active; multisex active; multispecies active”. With `CCN(CC)CCCNC(=O)Cn1ncc(-c2ccccc2)c1-c1ccccc1` the outcome was “inactive; multisex inactive”. With `C#C[C@]1(O)CC[C@H]2[C@@H]3CCc4cc(OC)ccc4[C@H]3CC[C@@]21C` the outcome was “inactive; multisex inactive”. With `N#CS` the outcome was “inactive; multisex inactive”. For `CN(C)C(=S)[S][Pb][S]C(=S)N(C)C`, the outcome was “inactive; multisex inactive; multispecies inactive”. For `O=CNc1nc(-c2ccc([N+](=O)[O-])o2)cs1`, the outcome was “active; multisite active; multisex active; multispecies active”. In the case of `CCN(Cc1cccc(S(=O)(=O)[O-])c1)c1ccc(C(=C2C=CC(=[N+](C)C)C=C2)c2ccc(N(CC)Cc3cccc(S(=O)(=O)O)c3)cc2)cc1`, the outcome is reported as “active; multisite active”. For `C[C@@H]1C/C=C/C=C/C=C/C=C/[C@H](O[C@@H]2O[C@H](C)[C@@H](O)[C@H](N)[C@@H]2O)C[C@@H]2O[C@](O)(C[C@@H](O)C[C@H]3O[C@@H]3/C=C/C(=O)O1)C[C@H](O)[C@H]2C(=O)O`, the outcome was “inactive; multisex inactive”. For `Cc1cc(C)c(N)cc1C`, the outcome was “active; multisite active; multisex active; multispecies active”. With `CCOc1ccc(NC(C)=O)cc1` the outcome was “active; multisite active; multisex active; multispecies active”. With `Nc1ccc([N+](=O)[O-])cc1` the outcome was “inactive; multisex inactive; multispecies inactive”. With `CC(=O)NNc1ccccc1` the outcome was “active; multisex active”. In the case of `CC(C)(C)c1cc([N+](=O)[O-])cc([N+](=O)[O-])c1OS(C)(=O)=O`, the outcome is reported as “inactive; multisex inactive”. For `Nc1cc(S(=O)(=O)[O-])cc2cc(S(=O)(=O)[O-])c(N=Nc3ccc(-c4ccc(N=Nc5c(S(=O)(=O)[O-])cc6cc(S(=O)(=O)[O-])cc(N)c6c5O)c(O)c4)cc3O)c(O)c12.[Cu].[Cu].[Na+].[Na+].[Na+].[Na+]`, the outcome was “active; multisite active; multisex active; multispecies active”. In the case of `COc1cc2c(c3oc4cccc(O)c4c(=O)c13)C1C=COC1O2` (stereo not drawn), the outcome is reported as “active; multisite active; multisex active; multispecies active”. For `Cc1cnc(NC(=O)C2=C(O)c3ccccc3S(=O)(=O)N2C)s1`, the outcome was “inactive; multisex inactive”. For `OC[P+](CO)(CO)CO`, the outcome was “inactive; multisex inactive; multispecies inactive”. With `NC(N)=O` the outcome was “inactive; multisex inactive; multispecies inactive”. With `COc1cc(/C=C/C(=O)O[C@H]2CC[C@]34C[C@]35CC[C@]3(C)[C@@H]([C@H](C)CCC=C(C)C)CC[C@@]3(C)[C@@H]5CC[C@H]4C2(C)C)ccc1O` the outcome was “inactive; multisex inactive; multispecies inactive”. For `O=NN1CCCCC1c1cccnc1` (stereo not drawn), the outcome was “active; multisex active”. For `O=[N+]([O-])OCC(CO[N+](=O)[O-])O[N+](=O)[O-]`, the outcome was “active; multisite active; multisex active”. For `Cc1c(N)nc(C)c2c1[nH]c1ccccc12`, the outcome was “active; multisex active; multispecies active”. For `O1[As]2O[As]3O[As]1O[As](O2)O3`, the outcome was “inactive; multisex inactive”. For `c1ccc(C2CO2)cc1` (stereo not drawn), the outcome was “active; multisex active; multispecies active”. In the case of `S=C(NC1CCCCC1)NC1CCCCC1`, the outcome is reported as “inactive; multisex inactive; multispecies inactive”. With `CC(=O)Nc1ccc2c(c1)Cc1ccccc1-2` the outcome was “active; multisite active; multisex active; multispecies active”.
